Assay [1] relates to LDL receptor promoter. As to the kind of experiment: LDLR-Luc production in presence of ER (pLDLRLUC10 and pRSVER, HepG2 cells). It counts as cell-based, human. The conditions noted are these: listed as estrogen. An excerpt: (§1) A 1546 base pair sequence of the human LDL receptor promoter was amplified using the polymerase chain reaction. A reaction mixture containing 20 picomoles each of the synthetic oligonucleotides:
(§2) The 1546 base pair fragment described above was isolated and cloned into the vector pSv2 containing firefly luciferase reporter gene that had been restriction enzyme digested to completion with NdeI and partially with HindIII. The resulting vector, pLDLRLUC10 contains the human LDL receptor promoter directing expression of the firefly luciferase gene, an ampicillin resistance marker and an origin of replication.
ATCC strain HepG2 cells were co-transfected with pLDLRLUC10 and pRSVER as described in Example IV.

Assay [2] concerns LDL receptor promoter. The experiment in a line: LDLR-Luc production in the absence of ER (pLDLRLUC10 and pRSV vector, HepG2 cells). Particulars: for LDLR-Luc production: no ER, 0 M 1597. Type of assay: cell-based, human.
Excerpt: as §1, §2
ATCC strain HepG2 cells were co-transfected with pLDLRLUC10 and pRSV vector plasmid as described in Example IV.

A further assay has as its system TGFβ-2 mRNA. The conditions noted are these: T-47D and MDA-MB-231; cited from earlier work.

“Also recorded” adds a separate entry of the source.

`C[C@]12CC[C@@H]3c4ccc(O)cc4CC[C@H]3[C@@H]1CC[C@@H]2O` [estradiol, 17β-estradiol]: the “induction of LDL receptor promoter/expression (in words)” value with LDL receptor promoter [1] is “mediated by ER; also recorded: have the ability to induce LDL receptor expression”. Further, the “induction of LDLR promoter without ER (in words)” value with LDL receptor promoter [2] (at or below 10^-6 M, or high concentrations as worded, FIG. 16) is recorded as “No induction”. Also, the LDLR-Luc production in the assay with LDL receptor promoter [2] (10^-5 M) stood at 2445; in the assay with LDL receptor promoter [2] (10^-6 M), 1578; in the assay on LDL receptor promoter [2] (10^-7 M), 1574; with LDL receptor promoter [2] (10^-8 M), 1792; with LDL receptor promoter [2] (10^-9 M) it was 1645. In the assay with TGFβ-2 mRNA, the “TGFβ-2 mRNA expression (in words)” value is “reduced TGFβ-2 mRNA expression”.

Source of the values: patent publication US5445941A, “Method for screening anti-osteoporosis agents” (Eli Lilly and Company, priority 1993, dated 1995).
